Values of other authors in US6706282B1, “Controlled delivery of phenoxyethyl-substituted 1,2,4-triazolones” (priority 1998, dated 2004).
Where a name gives a salt, the structure may show the parent alone.

Structure (SMILES): CCc1nn(CCCN2CCN(c3cccc(Cl)c3)CC2)c(=O)n1CCOc1ccccc1 [nefazodone hydrochloride, 2-[3-[4-(3-chlorophenyl)-piperazinyl]propyl]-5-ethyl-4-(2-phenoxyethyl)-2H-1,2,4-triazol-3(4H)-one hydrochloride]
- time of peak plasma concentrations after dosing (conventional immediate release formulations): about one
- half-life (in vivo): 2 to 4 h
